Here are results for 32 compounds from patent publication US10781185B2, “Heterocyclic compounds for the inhibition of PASK” (BioEnergenix LLC, priority 2009, dated 2020).

Bounds are passed on as bounds.

Experiment [1] concerns the target PASK (Homo sapiens (Human), UniProt Q96RG2). Kind of experiment: PAS Kinase FRET Assay. The experiment is classed as biochemical. The settings on record: TR-FRET, Ulight-peptide substrate; read-out: IC50 Kinase Domain. An excerpt: PAS Kinase FRET Assay The aim of the FRET assay is to determine the inhibition potential of test compounds on targeted kinase. This assay platform provides a homogenous screening method for measuring kinase activity by quantitating the amount of phospho-substrate in solution following a kinase reaction. In the presence of kinase and ATP, the Ulight-peptide is phosphorylated and captured by an anti-phospho-substrate antibody, which brings the Eu chelate donor and Ulight acceptor dyes into close proximity. […] The contents of the plate were and incubated at RT for 1 h. The reaction was stopped by adding 5 μl of stop solution to each test well followed by mixing and incubation at RT for 10 minutes. 5 μl of detection mix (detection antibody diluted in detection buffer) was added; the contents of the plate were mixed and then incubated in the dark for 1 hour at RT. […] The results were graphed to calculate the EC50. Titration of ATP at the EC50 concentration of kinase to determine ATP Km,app. was performed using the following method. […] The contents of the plate were and incubated at RT for 1 h. The reaction was stopped by adding 5 μl of stop solution to each test well followed by mixing and incubation at RT for 10 minutes. 5 μl of detection mix (detection antibody diluted in detection buffer) was added; the contents of the plate were mixed and then incubated in the dark for 1 hour at RT. […] The results were graphed to calculate the EC50 as the ATP Km,app. […] If compound is not soluble under this condition, it was diluted to 3 mM. Kinase reaction buffer was prepared containing 10 mM MgCl2, 50 mM HEPES, 1 mM EGTA, 0.01% TWEEN-20, 2 mM DTT. […] As a positive control, 2.5 μl of positive compound was added to assay wells, and 2.5 μl of DMSO to assay wells as vehicle control. Kinase solution was prepared in reaction buffer at 2× final assay concentration. Kinase solution (5 μl) was added to each well of the assay plate. The substrate and ATP solution was prepared in kinase reaction buffer at 4× final assay concentration. The kinase reaction was started by adding 2.5 μl of substrate+ATP mix solution to each well of the assay plate. The plate is mixed on a plate shaker; then covered and allowed to react for 2 hours in the dark at 25° C. without shaking. The reaction was stopped by adding 5 μl of stop solution to each test well followed by mixing and incubation at RT for 10 minutes in the dark. 5 μl of detection mix (detection antibody diluted in detection buffer) was added; the contents of the plate were mixed and then incubated in the dark for 1 hour at RT.
(TR-FRET usually uses a lanthanide donor and a delayed reading to cut background.)

Experiment [2] addresses PASK (UniProt # Q96RG2; human recombinant N-terminal GST tagged construct, residues 879-1323) (Homo sapiens (Human), UniProt Q96RG2). Kind of experiment: PASK ATP Radiochemical Assay. The experiment is classed as biochemical. The settings on record: 33P-ATP radiochemical, Myelin Basic Protein substrate; read-out: IC50 Kinase Domain. As to the method:
PASK ATP Radiochemical Assay
Test compounds in DMSO are then added and the mixture, followed by delivery of ^33P-ATP (specific activity 0.01 μCi/μl final) to initiate the reaction. […] The entire reaction mixture is washed through onto a P81 Phosphocellulose paper and washed three times for 10 minutes in 75 mM phosphoric acid and once in methanol prior to drying and scintillation counting.

PASK (Homo sapiens (Human), UniProt Q96RG2), sequence (Q96RG2 999-1251): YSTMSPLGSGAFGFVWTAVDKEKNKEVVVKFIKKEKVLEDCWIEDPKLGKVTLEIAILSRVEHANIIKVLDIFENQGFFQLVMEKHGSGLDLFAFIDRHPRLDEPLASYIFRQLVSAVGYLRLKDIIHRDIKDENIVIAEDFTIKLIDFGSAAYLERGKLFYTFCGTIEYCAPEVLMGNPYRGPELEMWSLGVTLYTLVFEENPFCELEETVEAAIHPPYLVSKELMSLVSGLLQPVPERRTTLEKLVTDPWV
PASK (UniProt # Q96RG2; human recombinant N-terminal GST tagged construct, residues 879-1323) (Homo sapiens (Human), UniProt Q96RG2), sequence (Q96RG2 879-1323, change not shown): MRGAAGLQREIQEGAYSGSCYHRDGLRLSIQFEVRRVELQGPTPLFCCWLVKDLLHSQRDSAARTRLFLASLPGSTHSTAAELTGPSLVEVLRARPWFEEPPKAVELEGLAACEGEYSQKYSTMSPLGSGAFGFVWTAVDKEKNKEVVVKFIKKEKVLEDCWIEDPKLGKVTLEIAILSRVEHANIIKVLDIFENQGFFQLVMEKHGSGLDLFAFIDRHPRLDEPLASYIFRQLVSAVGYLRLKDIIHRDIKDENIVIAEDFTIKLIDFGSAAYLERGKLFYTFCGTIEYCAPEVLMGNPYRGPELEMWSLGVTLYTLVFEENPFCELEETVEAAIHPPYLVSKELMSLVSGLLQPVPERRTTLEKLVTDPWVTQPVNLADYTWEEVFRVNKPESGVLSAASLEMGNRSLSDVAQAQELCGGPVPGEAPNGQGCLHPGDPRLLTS

Consider `CC1(C)CCCN(c2nc3cc(C(=O)O)ccc3nc2-c2ccc(F)cc2)C1` [Example 79, 3-(3,3-Dimethylpiperidin-1-yl)-2-(4-fluorophenyl)quinoxaline-6-carboxylic acid], for which the IC50 (as a rule, the concentration that inhibits the measured activity by half) was at most 10 µM on PASK [1] and under 10 µM at PASK [2].

On to `COc1ccc(-c2nc3ccc(C(=O)O)cc3nc2N(C)C(C)C)cc1` [Example 58, 3-(Isopropyl(methyl)amino)-2-(4-methoxyphenyl)quinoxaline-6-carboxylic acid], for which the half-inhibitory concentration (IC50) on PASK [1] was at most 10 µM; on PASK [2] it was under 10 µM. The matching figures for `CC(C)N(C)c1nc2cc(C(=O)O)ccc2nc1-c1ccc2c(c1)OCO2` [Example 77, 2-(Benzo[d][1,3]dioxol-5-yl)-3-(isopropyl(methyl)amino)quinoxaline-6-carboxylic acid]: at most 10 µM and under 10 µM. The like results for `CC1CCCN(c2nc3cc(C(=O)O)ccc3nc2-c2ccc(F)cc2)C1` (stereo not shown) [Example 80, 2-(4-Fluorophenyl)-3-(3-methylpiperidin-1-yl)quinoxaline-6-carboxylic acid] were, in that order, at most 10 µM and under 10 µM. The like results for `O=C(O)c1ccc2nc(-c3ccc(F)cc3)c(N3CCCCCC3)nc2c1` [Example 76, 3-(Azepan-1-yl)-2-(4-fluorophenyl)quinoxaline-6-carboxylic acid] were, in that order, at most 10 µM and under 10 µM. With `CN1CCN(c2nc3cc(C(=O)O)ccc3nc2-c2ccccc2)CC1` [Example 4, 3-(4-Methylpiperazin-1-yl)-2-phenylquinoxaline-6-carboxylic acid], the IC50 at PASK [2] was over 10 µM. For `O=C(O)c1ccc2nc(-c3ccccc3)c(N3CCC(c4ccccc4)CC3)nc2c1` [Example 13, 2-Phenyl-3-(4-phenylpiperidin-1-yl)quinoxaline-6-carboxylic acid], on PASK [2], the IC50 is under 10 µM. As for `COc1ccc(N2CCN(c3nc4cc(C(=O)O)ccc4nc3-c3ccccc3)CC2)cc1` [Example 9, 3-(4-(4-Methoxyphenyl)piperazin-1-yl)-2-phenylquinoxaline-6-carboxylic acid], the IC50 at PASK [2] is under 10 µM. On the same count and under the same terms, the result for `O=C(O)c1ccc2nc(-c3ccccc3)c(N3CCCCC3)nc2c1` [Example 12, 2-Phenyl-3-(piperidin-1-yl)quinoxaline-6-carboxylic acid] reads under 10 µM.

For the compound `O=C1CN(c2nc3cc(C(=O)O)ccc3nc2-c2ccc(F)cc2)CCN1` [Example 103, 2-(4-Fluorophenyl)-3-(3-oxopiperazin-1-yl)quinoxaline-6-carboxylic acid], the IC50 on PASK [1] was at most 10 µM. Same read-out and setting: then `O=C(O)c1ccc2nc(-c3ccccc3)c(N3CCOc4ccccc43)nc2c1` [Example 68, 3-(2,3-Dihydrobenzo[b][1,4]oxazin-4-yl)-2-phenylquinoxaline-6-carboxylic acid], with at most 10 µM; and `Cc1ccc(-c2nc3ccc(C(=O)O)cc3nc2N(C)C(C)C)s1` [Example 107, 3-(Isopropyl(methyl)amino)-2-(5-methylthiophen-2-yl)quinoxaline-6-carboxylic acid], with at most 10 µM. The same measure, in the same setting: the result for `O=C(O)c1ccc2nc(-c3ccccc3)c(N3CCCC4CCCCC43)nc2c1` (stereo not shown) [Example 96, 3-(Octahydroquinolin-1(2H)-yl)-2-phenylquinoxaline-6-carboxylic acid] reads at most 10 µM. For the compound `O=C(O)c1ccc2nc(-c3ccccc3)c(N3CCC(c4ccc(C(F)(F)F)cc4)CC3)nc2c1` [Example 7, 2-Phenyl-3-(4-(4-(trifluoromethyl)phenyl)piperidin-1-yl)quinoxaline-6-carboxylic acid], the IC50 on PASK [2] was under 10 µM.

Consider `O=C(O)c1ccc2nc(-c3ccccc3)c(N3CCN(c4ccccn4)CC3)nc2c1` [Example 2, 2-Phenyl-3-(4-(pyridin-2-yl)piperazin-1-yl)quinoxaline-6-carboxylic acid], for which the IC50 at PASK [2] is under 10 µM. In the case of `C[C@H]1CCCCN1c1nc2cc(C(=O)O)ccc2nc1-c1ccc(F)cc1` [Example 91, (S)-2-(4-Fluorophenyl)-3-(2-methylpiperidin-1-yl)quinoxaline-6-carboxylic acid], the IC50 at PASK [1] is at most 10 µM.

In the case of `O=C(O)c1ccc2nc(-c3ccccc3)c(N3CCC(c4ccc(Cl)cc4)CC3)nc2c1` [Example 15, 3-(4-(4-Chlorophenyl)piperidin-1-yl)-2-phenylquinoxaline-6-carboxylic acid], on PASK [2], the IC50 is under 10 µM. As for `O=C(O)c1ccc2nc(-c3ccccc3)c(N3CCCCCC3)nc2c1` [Example 14, 3-(Azepan-1-yl)-2-phenylquinoxaline-6-carboxylic acid], at PASK [2], the IC50 is under 10 µM. Same read-out and setting: the result for `O=C(O)c1ccc2nc(-c3ccccc3)c(N3CCN(c4ccc(Cl)cc4)CC3)nc2c1` [Example 8, 3-(4-(4-Chlorophenyl)piperazin-1-yl)-2-phenylquinoxaline-6-carboxylic acid] reads under 10 µM; that for `O=C(O)c1ccc2nc(-c3ccccc3)c(N3CCN(c4ccc(C(F)(F)F)cc4)CC3)nc2c1` [Example 1, 2-Phenyl-3-(4-(4-(trifluoromethyl)phenyl)piperazin-1-yl)quinoxaline-6-carboxylic acid], under 10 µM; that for `O=C(O)c1ccc2nc(-c3ccccc3)c(N3CCN(c4ccccc4)CC3)nc2c1` [Example 6, 2-Phenyl-3-(4-phenylpiperazin-1-yl)quinoxaline-6-carboxylic acid], under 10 µM. For the compound `CC(=O)N(C)C1CCN(c2nc3cc(C(=O)O)ccc3nc2-c2ccc(F)cc2)CC1` [Example 111, 2-(4-Fluorophenyl)-3-(4-(N-methylacetamido)piperidin-1-yl)quinoxaline-6-carboxylic acid], the half-inhibitory concentration (IC50) on PASK [1] was at most 10 µM.

As for `C[C@@H](c1ccccc1)N(C)c1nc2cc(C(=O)O)ccc2nc1-c1ccccc1` [Example 60, (S)-3-(Methyl(1-phenylethyl)amino)-2-phenylquinoxaline-6-carboxylic acid], the IC50 at PASK [1] is at most 10 µM. On the same count and under the same terms, the result for `CC(C)N(C)c1nc2cc(C(=O)O)ccc2nc1-c1cnc2ccccc2c1` [Example 99, 3-(Isopropyl(methyl)amino)-2-(quinolin-3-yl)quinoxaline-6-carboxylic acid] reads at most 10 µM. The same measure, in the same setting: the result for `CC[C@@H](C)N(C)c1nc2cc(C(=O)O)ccc2nc1-c1ccccc1` [Example 61, (R)-3-(sec-Butyl(methyl)amino)-2-phenylquinoxaline-6-carboxylic acid] reads at most 10 µM; that for `CC(C)N(C)c1nc2cc(C(=O)O)ccc2nc1-c1ccc(OC(F)(F)F)cc1` [Example 85, 3-(Isopropyl(methyl)amino)-2-(4-(trifluoromethoxy)phenyl)quinoxaline-6-carboxylic acid], at most 10 µM. Consider `O=C(O)c1ccc2nc(-c3ccccc3)c(N3CCC(c4cccc(Cl)c4)CC3)nc2c1` [Example 10, 3-(4-(3-Chlorophenyl)piperidin-1-yl)-2-phenylquinoxaline-6-carboxylic acid], for which the IC50 on PASK [2] is under 10 µM. Regarding `O=C(O)c1ccc2nc(-c3ccccc3)c(N3CCc4ccccc43)nc2c1` [Example 67, 3-(Indolin-1-yl)-2-phenylquinoxaline-6-carboxylic acid], the IC50 at PASK [1] was at most 10 µM. Still for that read-out and setting: then `CC(C)N(C)c1nc2cc(C(=O)O)ccc2nc1-c1cccc(F)c1` [Example 70, 2-(3-Fluorophenyl)-3-(isopropyl(methyl)amino)quinoxaline-6-carboxylic acid], with at most 10 µM; and `O=C(O)c1ccc2nc(-c3ccccc3)c(NC3CCCCC3)nc2c1` [Example 44, 3-(Cyclohexylamino)-2-phenylquinoxaline-6-carboxylic acid], with at most 10 µM. Still for that read-out and setting: then `COC[C@H]1CCCN1c1nc2cc(C(=O)O)ccc2nc1-c1ccc(F)cc1` [Example 93, (R)-2-(4-Fluorophenyl)-3-(2-(methoxymethyl)pyrrolidin-1-yl)quinoxaline-6-carboxylic acid], with at most 10 µM. As to `O=C(O)c1ccc2nc(-c3ccccc3)c(N3CCN(c4cccc(Cl)c4)CC3)nc2c1` [Example 3, 3-(4-(3-Chlorophenyl)piperazin-1-yl)-2-phenylquinoxaline-6-carboxylic acid], on PASK [2], the concentration for half-maximal inhibition (IC50) is under 10 µM.
